Test systems include HCT-116 colon; HT29 colon; MCF7 breast; SK-MEL-5 melanoma; SK-OV-3 ovarian; SNB-19 CNS; UACC-62 melanoma; UO-31 renal; M14 melanoma; TK-10 renal.
Common to all, as to assay: NCI-60 cell line screen, 48 h

The structures appear in SMILES notation.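 Compound exposure: 48 hours, 5 concentrations, 96-well plates. Here, GI50 denotes the concentration required for 50% inhibition of growth. The concentration for full growth arrest is given as TGI.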 Where a SMILES comes first, the peptide text is derived from it. [ ]: non-standard residue; d: D form. The star is where a group is joined. ξ: configuration not given here. ξF = NC(Cc1ccccc1)C(=O)O; Cbz = O=C(OCc1ccccc1)*; Aib = CC(C)(N)C(=O)O

Regarding `CN(C)CCNC(=O)c1cc(Cl)cc2cc3ccccc3nc12`, the TGI in the experiment on HCT-116 colon worked out at 7 µM; in the experiment with HT29 colon, 2.41 µM; in the experiment with MCF7 breast it was 4.53 µM; in the experiment with SK-MEL-5 melanoma it was 2.6 µM; in the experiment on SK-OV-3 ovarian, 9.27 µM; with SNB-19 CNS it was 7.47 µM. Besides, the TGI in the experiment on UACC-62 melanoma stood at 1.98 µM; with UO-31 renal it was 4.12 µM.
Regarding `CCOC(=O)CCC(C(=O)OCC)n1nc2ccc(Nc3c(C)[n+]([O-])c4cc(F)c(OCC)cc4[n+]3[O-])cc2n1` (centres undefined), the TGI with HCT-116 colon, with HT29 colon, in the experiment on M14 melanoma, in the experiment on MCF7 breast, with SK-MEL-5 melanoma and with SK-OV-3 ovarian was > 100 µM throughout. Further, the TGI in the experiment with SNB-19 CNS, in the experiment with TK-10 renal, with UACC-62 melanoma and in the experiment on UO-31 renal was > 100 µM in each case.
Turning to `OCC(O)CNc1ncnc2ccccc12` (centres undefined), the TGI with HCT-116 colon, in the experiment on HT29 colon, in the experiment with M14 melanoma, with MCF7 breast, in the experiment with SK-MEL-5 melanoma and in the experiment with SK-OV-3 ovarian was > 100 µM each time. For the same molecule, the TGI in the experiment with SNB-19 CNS, in the experiment on TK-10 renal, with UACC-62 melanoma and in the experiment on UO-31 renal was > 100 µM in each case.
In the case of `O=C1c2cccnc2C(=O)c2c1c(C(=O)OCCN1CCCCC1)c1ccccn21`, the GI50 in the experiment with HCT-116 colon is 41 nM; in the experiment on HT29 colon, 120 nM; in the experiment on M14 melanoma, 14.7 nM; with MCF7 breast, 5.75 nM; with SK-MEL-5 melanoma, 25.1 nM; in the experiment on SK-OV-3 ovarian it was 12.4 nM. Also, the GI50 is 13 nM in the experiment on SNB-19 CNS, 97.8 nM with TK-10 renal, 12.1 nM in the experiment with UACC-62 melanoma and 38.9 nM with UO-31 renal. The TGI in the experiment on HCT-116 colon was 1.95 µM; in the experiment on HT29 colon it was 1.71 µM; in the experiment with M14 melanoma, 0.0656 µM; with MCF7 breast it was 0.0767 µM; in the experiment on SK-MEL-5 melanoma, 0.113 µM; with SK-OV-3 ovarian, 0.051 µM. For the same molecule, the TGI with SNB-19 CNS turned out to be 0.498 µM; in the experiment with TK-10 renal, 0.43 µM; in the experiment on UACC-62 melanoma, 0.069 µM; in the experiment on UO-31 renal, 1.67 µM.
For `O=C(CSCC(=O)N/N=C/c1ccccc1)N/N=C\c1ccccc1`, the TGI with HCT-116 colon, with HT29 colon, in the experiment on M14 melanoma, in the experiment with MCF7 breast, with SK-MEL-5 melanoma and in the experiment on SK-OV-3 ovarian was > 100 µM throughout. Moreover, the TGI with SNB-19 CNS, in the experiment on TK-10 renal, in the experiment on UACC-62 melanoma and in the experiment on UO-31 renal was > 100 µM in each case.
Regarding `CC1(CO)COS(=O)OC1` (centres undefined), the TGI in the experiment on HCT-116 colon, with HT29 colon, with MCF7 breast, in the experiment with SK-MEL-5 melanoma, in the experiment on SK-OV-3 ovarian and in the experiment on SNB-19 CNS was > 100 µM in each case. In addition, the TGI in the experiment with TK-10 renal and in the experiment with UO-31 renal was > 100 µM throughout.
As to `CC(C)(C)OC(=O)N1C(OP(=O)(Oc2ccccc2)Oc2ccccc2)=CSc2ccccc21`, the TGI in the experiment with HCT-116 colon was > 100 µM; with HT29 colon it was > 100 µM; in the experiment with M14 melanoma, 68.6 µM; in the experiment with MCF7 breast it was > 100 µM; in the experiment with SK-MEL-5 melanoma, > 100 µM; in the experiment with SK-OV-3 ovarian, > 100 µM. For the same molecule, the TGI in the experiment with SNB-19 CNS, in the experiment with TK-10 renal, with UACC-62 melanoma and with UO-31 renal was > 100 µM each time.
In the case of `OC[C@H]1NC[C@@H](O)[C@@H](O)[C@H]1O`, the TGI in the experiment on HCT-116 colon, with HT29 colon, with M14 melanoma, in the experiment on MCF7 breast, in the experiment on SK-MEL-5 melanoma and in the experiment on SK-OV-3 ovarian was > 100 µM throughout. The TGI in the experiment with SNB-19 CNS, with TK-10 renal, in the experiment with UACC-62 melanoma and in the experiment with UO-31 renal was > 100 µM each time.
As to `CCOC(=O)CNC(=O)C(Cc1ccccc1)NC(=O)C(C)(C)NC(=O)OCc1ccccc1` (centres undefined) (Cbz-[Aib]-[ξF]-Gly-OEt), the TGI with HCT-116 colon, in the experiment on HT29 colon, in the experiment with M14 melanoma, in the experiment on MCF7 breast, in the experiment with SK-MEL-5 melanoma and in the experiment with SNB-19 CNS was > 100 µM each time. The figures for the TGI in the experiment with TK-10 renal, in the experiment on UACC-62 melanoma and in the experiment on UO-31 renal were > 100 µM, 40.9 µM and > 100 µM, respectively.
`CC(C)CCCC(C)[C@H]1CC[C@H]2n3c(nc4ccccc43)CCC[C@]12C` (some centres undefined): the TGI in the experiment on HCT-116 colon amounted to 53.4 µM; in the experiment with HT29 colon, 26.4 µM; in the experiment with M14 melanoma it was 35.4 µM; in the experiment with MCF7 breast, 28.5 µM; in the experiment on SK-MEL-5 melanoma it was 32.8 µM; in the experiment on SK-OV-3 ovarian, 30.9 µM. The TGI with SNB-19 CNS was 37.1 µM; in the experiment on TK-10 renal, 38.2 µM; with UACC-62 melanoma, 30.8 µM; in the experiment on UO-31 renal, 28.6 µM.
In the case of `Nc1[nH]c(=S)nc2nc3c(c(-c4ccccc4)c12)CCCC3`, the TGI in the experiment with HCT-116 colon, in the experiment with HT29 colon, in the experiment with M14 melanoma, in the experiment on MCF7 breast, in the experiment with SK-MEL-5 melanoma and in the experiment on SK-OV-3 ovarian was > 100 µM each time. Also, the TGI in the experiment on SNB-19 CNS, in the experiment with TK-10 renal, in the experiment on UACC-62 melanoma and in the experiment on UO-31 renal was > 100 µM each time.
`CN(Cc1cn(O)c2nc(=N)nc(N)c-2n1)c1ccc(C(=O)NC23CC4CC(CC(C4)C2)C3)cc1`: the TGI in the experiment on HCT-116 colon, with M14 melanoma, in the experiment on MCF7 breast, in the experiment on SK-MEL-5 melanoma, in the experiment on SK-OV-3 ovarian and in the experiment on SNB-19 CNS was > 100 µM in each case. In addition, the TGI in the experiment on TK-10 renal, with UACC-62 melanoma and with UO-31 renal was > 100 µM each time.

(Values after PubChem BioAssay (NCI).)
